Measured values reported in patent US20240415804A1, “METHOD OF TREATING PANCREATIC CANCER” (University of South Florida, priority 2022, published 2024).

Assays:
SHIP-1 [1] = experiment: SHIP-1 gene and protein expression in tumors of HPC mice; format: in vivo, mouse; conditions: API 25 mg/kg IP 3 times per week for 3-4 weeks, vs vehicle
Procedure: Earlier studies have shown the anti-tumor activity of API in pre-clinical experimental models of cancer^41, 62-68. The inventors have reported that API increased survival and reduced tumor growth in a heterotopic (H) mouse model of PC (HPC)^55. To investigate if API targets miR-155 and regulates SHIP-1 in the TME of an HPC mouse model, HPC mice were treated with API at a dose of 25 mg/kg (IP) 3 times per week for 3-4 weeks.
(§1) All female C57BL/6 mice (6-8 weeks of age) described in this study were purchased from Envigo (Indianapolis, IN, USA) and were acclimatize for one week in a pathogen-free animal facility (University of South Florida (USF) vivarium) before injections with PC cells. To generate heterotopic pancreatic cancer (HPC) models, mice were subcutaneously injected with 1.5×10^5 murine Panc02 (HPC mice) or 5×10^6 murine UN-KC-6141 cells (KC-HPC mice), in sterile 1× phosphate buffer saline (PBS), in the lower ventral abdomen, while control (CTRL) mice received sterile 1×PBS. […]
(§2) Isolation of total RNA from digested pancreatic tumors and BM cells was performed using a RNeasy Mini Kit (Qiagen), according to the manufacturer's instructions. RT-PCR of quantified and normalized total RNA was performed using a High-Capacity cDNA RT Kit with an RNase Inhibitor (Applied Biosystems), according to the manufacturer's instructions. […]

SHIP-1 [2] = experiment: SHIP-1 gene and protein expression in tumors of KC-HPC mice; format: in vivo, mouse; conditions: API 25 mg/kg IP three times per week for 17 days, vs vehicle
Procedure: To build on these findings, the inventors then used a novel pancreatic cancer cell line, UN-KC-6141, that resembles human PC due to its expression of a mutated Kras and generated mice harboring these tumor cells, called KC-HPC mice. Such mice were treated with API at a dose of 25 mg/kg (IP) three times per week for 17 days. The inventors examined if API also targets miR-155 and regulates SHIP-1 in the tumors from KC-HPC mouse model.
as §1, §2

`O=c1cc(-c2ccc(O)cc2)oc2cc(O)cc(O)c12` [API, 40,5,7-Trihydroxyflavone, 5,7-Dihydroxy-2-(4-hydroxyphenyl)-4-benzopyrone] was tested, and the “SHIP-1 gene expression in tumor” value (SHIP-1 [1]) was “increased”, the “SHIP-1 protein expression in tumor” value (SHIP-1 [1]) was “increased” and the “SHIP-1 gene expression in tumor” value (SHIP-1 [2]) was “significantly increased”. For the same molecule, the “SHIP-1 protein expression in tumor” value (SHIP-1 [2]) was “significantly increased”.
